Reference: paper PMC12150326 (The Journal of Organic Chemistry, 2025)

What was measured:
[1] = system: U251; type: cell-based, human
Description: (§1) (aR)-6, (aS)-6, (aS)-iso -6, and (aR)-iso -6 were submitted to the 60 Cell Screen panel and evaluated at 5 doses (100 μM, 10 μM, 1 μM, 0.1 μM, and 0.01 μM). […] The complete report from this submission is available at the publisher’s Web site as a separate Supporting Information file. For COMPARE analysis, TGI levels of response for (aR)-DM-MTC (6) and (aS)-iso-DM-MTC were compared to those of several established tubulin inhibitors previously tested in the NCI-60 screen.

[2] = system: HL-60(TB); type: cell-based, human
Description: as §1

[3] = system: SK-MEL-2; type: cell-based, human
Description: as §1

[4] = system: SK-MEL-5; type: cell-based, human
Description: as §1

[5] = system: UACC-62; type: cell-based, human
Description: as §1

[6] = system: PC-3; type: cell-based, human
Description: as §1

[7] = system: M14; type: cell-based, human
Description: as §1

[8] = system: MALME-3M; type: cell-based, human
Description: as §1

[9] = system: MDA-MB-231/ATCC; type: cell-based, human
Description: as §1

[10] = system: NCI 60 cell lines; type: cell-based, human
Description: as §1

[11] = system: IGROV1; type: cell-based, human
Description: as §1

[12] = system: RXF 393; type: cell-based, human
Description: as §1

[13] = system: MOLT-4; type: cell-based, human
Description: as §1

[14] = system: HOP-62; type: cell-based, human
Description: as §1

[15] = system: SK-OV-3; type: cell-based, human
Description: as §1

[16] = system: A498; type: cell-based, human
Description: as §1

[17] = system: OVCAR-5; type: cell-based, human
Description: as §1

[18] = system: SK-MEL-28; type: cell-based, human
Description: as §1

[19] = system: TK-10; type: cell-based, human
Description: as §1

[20] = system: A549; test: Cell-growth inhibition (CellTiter); type: cell-based, human; conditions: A549, 3 days; read-out: Cell Growth Inhibition GI50 ± SE
Description: (§2) Inhibition of cell growth was determined by using standard procedures. Cell lines were obtained from the NCI anticancer drug screen and maintained in DMEM medium supplemented with 10% fetal bovine serum. Growing cells were exposed to serial dilutions of each compound for 3 days. Cell growth was determined with CellTiter Assay Reagent (Promega), and growth parameters, including inhibition of growth, were measured by using the methods specified by the manufacturer.

[21] = system: PC3; test: Cell-growth inhibition (CellTiter); type: cell-based, human; conditions: PC3, 3 days; read-out: Cell Growth Inhibition GI50 ± SE
Description: as §2

[22] = system: M14; test: Cell-growth inhibition (CellTiter); type: cell-based, human; conditions: M14, 3 days; read-out: Cell Growth Inhibition GI50 ± SE
Description: as §2

[23] = system: bovine brain tubulin; test: Tubulin polymerization inhibition; type: biochemical; conditions: 10 μM tubulin
Description: Inhibition of tubulin polymerization was determined as described previously. In brief, 10 μM bovine brain tubulin (PurSolutions, LLC (puresoluble.com)) was incubated under conditions strongly promoting polymerization of tubulin (1 M NaGlutamate, 0.1 M Mes (Morpholinoethanesulfonic acid), 1 mM MgCl2, 0.5 mM GTP, pH 6.9), in the absence or presence of 3.3 or 33 μM test compound, incubated for 30 min at 37 °C, then centrifuged at 100,000g for 8 min, and the top 3/4 of the supernatant removed. Protein concentration was measured, and polymerization was determined as pelletable protein lost from the supernatant.

## COc1cc(C)c(-c2ccc(OC)c(=O)cc2C)c(OC)c1OC (single isomer, unassigned) [(aS)-6]
[1]
  Log10GI50: > -4.00 Molar
  Log10LC50: > -4.00 Molar
  Log10TGI: > -4.00 Molar
[2]
  Log10GI50: > -4.00 Molar
  Log10LC50: > -4.00 Molar
  Log10TGI: > -4.00 Molar
[3]
  Log10GI50: > -4.00 Molar
  Log10LC50: > -4.00 Molar
  Log10TGI: > -4.00 Molar
[4]
  Log10GI50: > -4.00 Molar
  Log10LC50: > -4.00 Molar
  Log10TGI: > -4.00 Molar
[5]
  Log10GI50: > -4.00 Molar
  Log10LC50: > -4.00 Molar
  Log10TGI: > -4.00 Molar
[6]
  Log10GI50: > -4.00 Molar
  Log10LC50: > -4.00 Molar
  Log10TGI: > -4.00 Molar
[7]
  Log10GI50: > -4.00 Molar
  Log10LC50: > -4.00 Molar
  Log10TGI: > -4.00 Molar
[8]
  Log10GI50: > -4.00 Molar
  Log10LC50: > -4.00 Molar
  Log10TGI: > -4.00 Molar
[9]
  Log10GI50: > -4.00 Molar
  Log10LC50: > -4.00 Molar
  Log10TGI: > -4.00 Molar
[10]; 100 μM
  cytotoxicity at the highest concentration tested: not cytotoxic
[10]; NCI-60 cell line selectivity, listed as (aS)-DM-MTC (6)
  Log10 Range at TGI: 0
[10]; NCI-60 mean total growth inhibition, listed as (aS)-DM-MTC (6)
  Mean TGI: > 100 µM
[10]; NCI-60 mean, listed as (aS)-DM-MTC (6)
  GI50: > 100 µM
[10]; mean graph
  Delta Log10GI50: 0.63
  Delta Log10LC50: 0
  Delta Log10TGI: 0
  Range Log10GI50: 0.65
  Range Log10LC50: 0.0
  Range Log10TGI: 0.0
[10]; mean graph midpoint
  _MID Log10GI50: -4.02 Molar
  _MID Log10LC50: -4.0 Molar
  _MID Log10TGI: -4.0 Molar
[11]
  Log10GI50: > -4.00 Molar
  Log10LC50: > -4.00 Molar
  Log10TGI: > -4.00 Molar
[12]
  Log10GI50: > -4.00 Molar
  Log10LC50: > -4.00 Molar
  Log10TGI: > -4.00 Molar
[13]
  Log10GI50: > -4.00 Molar
  Log10LC50: > -4.00 Molar
  Log10TGI: > -4.00 Molar
[14]
  Log10GI50: > -4.00 Molar
  Log10LC50: > -4.00 Molar
  Log10TGI: > -4.00 Molar
[15]
  Log10GI50: > -4.00 Molar
  Log10LC50: > -4.00 Molar
  Log10TGI: > -4.00 Molar
[16]
  Log10GI50: > -4.00 Molar
  Log10LC50: > -4.00 Molar
  Log10TGI: > -4.00 Molar
[17]
  Log10GI50: > -4.00 Molar
  Log10LC50: > -4.00 Molar
  Log10TGI: > -4.00 Molar
[18]
  Log10GI50: > -4.00 Molar
  Log10LC50: > -4.00 Molar
  Log10TGI: > -4.00 Molar
[19]
  Log10GI50: > -4.00 Molar
  Log10LC50: > -4.00 Molar
  Log10TGI: > -4.00 Molar
[20]
  GI50: > 20 µM
[21]
  GI50: > 20 µM
[22]
  GI50: > 20 µM
[23]; 3.3 μM compound
  Polymerization Inhibition (%) 3.3 μM: 0%
[23]; 33 μM compound
  Polymerization Inhibition (%) 33 μM: 0%
